The target of the assay is T1, mAOX3 (Mus musculus, UniProt G3X982).
T1 construct: gene Aox3; recombinant from E. coli TP1000 (plasmid pMMA1), Ni-NTA and Superdex 200 purified, chemically sulfurated, dimer (300 kDa)
T1 sequence (G3X982 1-1335): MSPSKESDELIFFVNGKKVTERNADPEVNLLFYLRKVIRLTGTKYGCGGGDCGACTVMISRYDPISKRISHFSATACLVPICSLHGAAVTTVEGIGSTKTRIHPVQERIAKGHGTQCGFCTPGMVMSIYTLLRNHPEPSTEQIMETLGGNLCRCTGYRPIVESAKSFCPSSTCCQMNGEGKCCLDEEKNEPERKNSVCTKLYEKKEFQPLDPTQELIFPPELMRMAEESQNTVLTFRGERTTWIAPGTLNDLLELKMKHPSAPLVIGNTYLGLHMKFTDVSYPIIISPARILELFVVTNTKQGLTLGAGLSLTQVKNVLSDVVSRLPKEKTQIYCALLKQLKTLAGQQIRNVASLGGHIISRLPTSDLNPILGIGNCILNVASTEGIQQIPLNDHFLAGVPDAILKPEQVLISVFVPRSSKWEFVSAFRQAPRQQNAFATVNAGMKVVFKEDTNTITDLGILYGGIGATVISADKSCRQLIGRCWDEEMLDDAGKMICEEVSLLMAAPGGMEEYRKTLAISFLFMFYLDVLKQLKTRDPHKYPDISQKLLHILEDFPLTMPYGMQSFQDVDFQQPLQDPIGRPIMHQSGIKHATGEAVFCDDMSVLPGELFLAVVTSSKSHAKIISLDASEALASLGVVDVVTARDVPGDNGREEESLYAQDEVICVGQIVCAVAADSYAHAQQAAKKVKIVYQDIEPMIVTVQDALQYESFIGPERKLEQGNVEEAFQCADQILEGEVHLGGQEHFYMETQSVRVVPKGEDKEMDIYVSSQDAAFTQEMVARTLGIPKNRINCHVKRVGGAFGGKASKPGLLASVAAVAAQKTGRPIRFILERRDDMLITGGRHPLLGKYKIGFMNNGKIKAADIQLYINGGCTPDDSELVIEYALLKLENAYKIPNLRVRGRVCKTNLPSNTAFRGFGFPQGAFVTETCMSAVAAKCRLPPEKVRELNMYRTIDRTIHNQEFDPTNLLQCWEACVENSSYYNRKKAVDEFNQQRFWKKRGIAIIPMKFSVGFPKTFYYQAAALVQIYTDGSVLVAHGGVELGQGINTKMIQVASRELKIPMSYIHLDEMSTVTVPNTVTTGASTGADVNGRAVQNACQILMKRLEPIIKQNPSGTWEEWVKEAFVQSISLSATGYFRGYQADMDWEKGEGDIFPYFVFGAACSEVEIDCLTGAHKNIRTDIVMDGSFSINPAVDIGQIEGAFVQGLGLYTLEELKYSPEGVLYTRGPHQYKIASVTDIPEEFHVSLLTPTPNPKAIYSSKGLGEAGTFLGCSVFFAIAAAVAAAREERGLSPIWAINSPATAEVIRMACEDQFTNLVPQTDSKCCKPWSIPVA
Kind of assay: DCPIP reduction at […] nm, steady-state kinetics. The format is biochemical. Particulars: 100 μM DCPIP as electron acceptor, 50 mM Tris-HCl, 1 mM EDTA, pH 8.0, 37°C, corrected to 100% Mo saturation.

The record followed here is paper PMC5784979, “Direct comparison of the four aldehyde oxidase enzymes present in mouse gives insight into their substrate specificities” (PLoS ONE, 2018).

One may read the Km as the concentration of substrate that gives half-maximal velocity. On to `CC=O` [acetaldehyde], for which the Km (range printed jointly for mAOX3, mAOX4 and mAOX2) fell in the range of 4.4 to 4.6 mM.
For the compound `O=Cc1ccc(O)cc1` [4-hydroxybenzaldehyde], the Km (limit given jointly for mAOX3, mAOX4 and mAOX2) is less than 0.002 mM.
